≈ marks a conversion by molar mass, not a printed value.
Experiments:
Format in all cases: functional
Conditions in all cases: time 20-24 hrs
Staphylococcus aureus [1] = experiment: Antimicrobial activity against antibiotic-resistant Staphylococcus aureus ATCC BAA-2312 assessed as inhibition of visible growth measured after 20 to 24 hrs incubation by CLSI method
Bacillus subtilis = experiment: Antimicrobial activity against antibiotic-resistant Bacillus subtilis ATCC 6623 assessed as inhibition of visible growth measured after 20 to 24 hrs incubation by CLSI method
[2] = test system: Staphylococcus epidermidis; experiment: Antimicrobial activity against antibiotic-resistant Staphylococcus epidermidis ATCC 700296 assessed as inhibition of visible growth measured after 20 to 24 hrs incubation by CLSI method
Staphylococcus aureus [3] = experiment: Antimicrobial activity against antibiotic-resistant Staphylococcus aureus ATCC 33592 assessed as inhibition of visible growth measured after 20 to 24 hrs incubation by CLSI method
Enterococcus faecalis [4] = experiment: Antimicrobial activity against antibiotic-susceptible Enterococcus faecalis ATCC 29212 assessed as inhibition of visible growth measured after 20 to 24 hrs incubation by CLSI method
Staphylococcus aureus [5] = experiment: Antimicrobial activity against antibiotic-resistant Staphylococcus aureus ATCC 33591 assessed as inhibition of visible growth measured after 20 to 24 hrs incubation by CLSI method
Staphylococcus aureus [6] = experiment: Antimicrobial activity against Staphylococcus aureus ATCC 25923 assessed as inhibition of visible growth measured after 20 to 24 hrs incubation by CLSI method
Enterococcus faecalis [7] = experiment: Antimicrobial activity against antibiotic-resistant Enterococcus faecalis ATCC 51299 assessed as inhibition of visible growth measured after 20 to 24 hrs incubation by CLSI method
Staphylococcus aureus [8] = experiment: Antimicrobial activity against antibiotic-resistant Staphylococcus aureus ATCC 700699 assessed as inhibition of visible growth measured after 20 to 24 hrs incubation by CLSI method
Enterococcus faecium = experiment: Antimicrobial activity against antibiotic-resistant Enterococcus faecium ATCC 700221 assessed as inhibition of visible growth measured after 20 to 24 hrs incubation by CLSI method

SMILES | MIC (Staphylococcus aureus [1]) [µg/mL] | MIC (Bacillus subtilis) [µg/mL] | MIC [2] [µg/mL] | MIC (Staphylococcus aureus [3]) [µg/mL] | MIC (Enterococcus faecalis [4]) [µg/mL] | MIC (Staphylococcus aureus [5]) [µg/mL] | MIC (Staphylococcus aureus [6]) [µg/mL] | MIC (Enterococcus faecalis [7]) [µg/mL] | MIC (Staphylococcus aureus [8]) [µg/mL] | MIC (Enterococcus faecium) [µg/mL]
O=C(O)c1ccc(-n2cc(CNc3cccc(Cl)c3)c(-c3ccc(F)cc3)n2)cc1 | 4 (≈ 9.48 µM) | 4 (≈ 9.48 µM) | 16 (≈ 37.9 µM) | 16 (≈ 37.9 µM) | 32 (≈ 75.9 µM) | 4 (≈ 9.48 µM) | 8 (≈ 19 µM) | 32 (≈ 75.9 µM) | 8 (≈ 19 µM) | 32 (≈ 75.9 µM)
CC(C)c1ccc(NCc2cn(-c3ccc(C(=O)O)cc3)nc2-c2ccc(F)cc2)cc1 | 4 (≈ 9.31 µM) | 2 (≈ 4.66 µM) | 8 (≈ 18.6 µM) | 8 (≈ 18.6 µM) | 16 (≈ 37.3 µM) | 4 (≈ 9.31 µM) | 8 (≈ 18.6 µM) | 8 (≈ 18.6 µM) | 4 (≈ 9.31 µM) | 4 (≈ 9.31 µM)
Cc1ccc(NCc2cn(-c3ccc(C(=O)O)cc3)nc2-c2ccc(F)cc2)cc1Cl | 16 (≈ 36.7 µM) | 8 (≈ 18.4 µM) | 32 (≈ 73.4 µM) | 16 (≈ 36.7 µM) | > 32 | 16 (≈ 36.7 µM) | 32 (≈ 73.4 µM) | > 32 | 4 (≈ 9.18 µM) | 16 (≈ 36.7 µM)
O=C(O)c1ccc(-n2cc(CNc3ccc(Br)c(Cl)c3)c(-c3ccc(F)c(F)c3)n2)cc1 | 1 (≈ 1.93 µM) | 2 (≈ 3.86 µM) | 2 (≈ 3.86 µM) | 2 (≈ 3.86 µM) | 4 (≈ 7.71 µM) | 0.5 (≈ 0.964 µM) | 1 (≈ 1.93 µM) | 4 (≈ 7.71 µM) | 2 (≈ 3.86 µM) | 4 (≈ 7.71 µM)
O=C(O)c1ccc(-n2cc(CNc3cc(Cl)cc(C(F)(F)F)c3)c(-c3cccc(F)c3)n2)cc1 | 1 (≈ 2.04 µM) | 0.5 (≈ 1.02 µM) | 4 (≈ 8.17 µM) | 1 (≈ 2.04 µM) | 4 (≈ 8.17 µM) | 1 (≈ 2.04 µM) | 2 (≈ 4.08 µM) | 2 (≈ 4.08 µM) | 2 (≈ 4.08 µM) | 2 (≈ 4.08 µM)
O=C(O)c1ccc(-n2cc(CNc3ccc(F)cc3)c(-c3ccc(F)cc3)n2)cc1 | 32 (≈ 78.9 µM) | 16 (≈ 39.5 µM) | 32 (≈ 78.9 µM) | 16 (≈ 39.5 µM) | > 32 | 16 (≈ 39.5 µM) | 16 (≈ 39.5 µM) | > 32 | 16 (≈ 39.5 µM) | > 32
O=C(O)c1ccc(-n2cc(CNc3ccc(F)c(Cl)c3)c(-c3ccc(F)cc3)n2)cc1 | 4 (≈ 9.09 µM) | 2 (≈ 4.55 µM) | 32 (≈ 72.8 µM) | 8 (≈ 18.2 µM) | > 32 | 2 (≈ 4.55 µM) | 8 (≈ 18.2 µM) | > 32 | 8 (≈ 18.2 µM) | 16 (≈ 36.4 µM)
O=C(O)c1ccc(-n2cc(CNc3cc(F)c(F)c(F)c3)c(-c3cccc(F)c3)n2)cc1 | 4 (≈ 9.06 µM) | 4 (≈ 9.06 µM) | 8 (≈ 18.1 µM) | 4 (≈ 9.06 µM) | 32 (≈ 72.5 µM) | 1 (≈ 2.27 µM) | 4 (≈ 9.06 µM) | 32 (≈ 72.5 µM) | 8 (≈ 18.1 µM) | 16 (≈ 36.2 µM)
O=C(O)c1ccc(-n2cc(CNc3ccc(F)c(Cl)c3F)c(-c3ccc(F)c(F)c3)n2)cc1 | 4 (≈ 8.41 µM) | 1 (≈ 2.1 µM) | 8 (≈ 16.8 µM) | 4 (≈ 8.41 µM) | 16 (≈ 33.6 µM) | 2 (≈ 4.2 µM) | 4 (≈ 8.41 µM) | > 32 | 4 (≈ 8.41 µM) | 4 (≈ 8.41 µM)
O=C(O)c1ccc(-n2cc(CNc3cc(F)cc(C(F)(F)F)c3)c(-c3ccc(F)c(F)c3)n2)cc1 | 2 (≈ 4.07 µM) | 1 (≈ 2.04 µM) | 4 (≈ 8.14 µM) | 1 (≈ 2.04 µM) | 8 (≈ 16.3 µM) | 1 (≈ 2.04 µM) | 2 (≈ 4.07 µM) | 8 (≈ 16.3 µM) | 2 (≈ 4.07 µM) | 4 (≈ 8.14 µM)
O=C(O)c1ccc(-n2cc(CNc3cccc(Br)c3)c(-c3cccc(F)c3)n2)cc1 | 4 (≈ 8.58 µM) | 2 (≈ 4.29 µM) | 16 (≈ 34.3 µM) | 8 (≈ 17.2 µM) | 16 (≈ 34.3 µM) | 2 (≈ 4.29 µM) | 4 (≈ 8.58 µM) | 16 (≈ 34.3 µM) | 8 (≈ 17.2 µM) | 16 (≈ 34.3 µM)
O=C(O)c1ccc(-n2cc(CNc3ccc(Oc4ccccc4)cc3)c(-c3cccc(F)c3)n2)cc1 | 2 (≈ 4.17 µM) | 2 (≈ 4.17 µM) | 8 (≈ 16.7 µM) | 4 (≈ 8.34 µM) | 8 (≈ 16.7 µM) | 2 (≈ 4.17 µM) | 4 (≈ 8.34 µM) | 8 (≈ 16.7 µM) | 4 (≈ 8.34 µM) | 4 (≈ 8.34 µM)
O=C(O)c1ccc(-n2cc(CNc3cc(Cl)c(F)cc3F)c(-c3ccc(F)c(F)c3)n2)cc1 | > 32 | > 32 | > 32 | > 32 | > 32 | > 32 | > 32 | > 32 | > 32 | > 32
O=C(O)c1ccc(-n2cc(CNc3ccc(Cl)cc3)c(-c3ccc(F)cc3)n2)cc1 | 32 (≈ 75.9 µM) | 4 (≈ 9.48 µM) | > 32 | > 32 | > 32 | 4 (≈ 9.48 µM) | > 32 | > 32 | 8 (≈ 19 µM) | > 32

Source: ChEMBL document CHEMBL5365500, “Development and Antibacterial Properties of 4-[4-(Anilinomethyl)-3-phenylpyrazol-1-yl]benzoic Acid Derivatives as Fatty Acid Biosynthesis Inhibitors” (J Med Chem, 2023)
